From article PMC11778240, “Synthesis and preclinical evaluation of tigilanol tiglate analogs as latency-reversing agents for the eradication of HIV” (Science Advances, 2025)

Assays:
[1] = tested on: tumor necrosis factor–α; assay: TNF-α ELISA, A549 cells; type: cell-based, Human; settings: for TNF-α (ELISA): 24 hours, lowest detectable limit 3.5 pg/ml
Experimental: We stimulated A549 cells with SUW402 and SUW431 at the same concentrations used in the NF-κB activation assay: 500 and 50 nM (figs. S1 and S2).
In efforts to replicate the conditions of the in vitro NF -κB assay, 5 x 10^4 A549 cells were plated per well on Corning® 96-well Clear Round Bottom TC-treated Microplates in 180 μl of pre-warmed DMEM (4.5 g/L glucose, 10% FBS, and 1% Pen-Strep-Glutamine (100 X, 50 mg/mL)).
Following incubation at 37 °C in 5% CO2 for approximately 24 hours to allow for cell adherence, 1.8 μl of either SUW402 or SUW431 were added in triplicate to their respective wells to achieve a final compound concentration of either 50 nM or 500 nM, the two concentrations tested in the NF-κB assay. 24 hours after compound addition, the microplate containing cells treated with compound was spun at 1800 rpm for 3 minutes to allow for pelleting of cells and other debris before 150 μL of cellular supernatant was aspirated and transferred to a new Corning® 96 -well Clear Round Bottom TC-treated Microplate. Note that if the supernatant is not meant to be immediately analyzed, the microplate containing cellular supernatant should be paraf ilm, wrapped, and stored at -80 °C. Careful attention should be paid to avoiding freeze-thaw cycles. To quantify cytokine secretion within samples, dilutions were performed using Assay Buffer A included in the LEGEND MAX™ Human IL-8 ELISA Kit (Cat # 431507) and LEGEND MAX™ Human TNF-α ELISA Kit (Cat # 430207), respectively.
Immediately before running the assay, reagents were allowed to come to room temperature and diluted. Note that if the supernatant is frozen, it should be removed at this time and allowed to thaw. The 1X Wash Buffer was prepared by diluting the 20X Wash Buf fer with Invitrogen™ UltraPure™ DNase/RNase-Free Distilled Water. The lyophilized human IL-8 and TNF-α standards were reconstituted by adding the appropriate volume of Assay Buffer A to prepare the 20 ng/mL standard stock solutions. The reconstituted stand ards were allowed to sit at room temperature for 20 minutes before being gently vortexed to ensure complete mixing. To generate a standard curve for each cytokine, 500 μL of a 1,000 pg/mL top standard was prepared after which six two -fold serial dilutions of the top standard were performed in 1.7 mL microcentrifuge tubes using Assay
The Anti-Human IL-8 pre-coated 96-well Strip Microplate and Anti-Human TNF-α pre-coated 96-well Strip Microplate were each washed 4 times by hand. With each wash, at least 300 μL of 1X Wash Buffer was added per well and aspirated, and any residual buffer was removed by blotting the plate on an absorbent paper towel. Following this wash cycle, 50 μL of Assay Buffer A was added to each well that would ultimately contain sample or standard. To rigorously ensure no cellular debris was left in the analyte, an ad ditional centrifugation step was performed (1800 rpm for 3 minutes) before transferring 50 μL of sample or standard dilutions to the appropriate wells.
Adhesive plate sealers were utilized to cover the plates, prevent contamination, and avoid sample evaporation after which each plate was placed on a cell shaker and allowed to shake at room temperature at 200 rpm for 2 hours. Following incubation, the contents of each plate were discarded and subsequently washed by hand 4 times with 1X Wash Buffer, as previo usly reported. […]

[2] = molecular target: T1, PKC-β fused to GFP (Homo sapiens, UniProt P05771); assay: PKC-GFP translocation assay in CHO-K1 cells (confocal microscopy); type: cell-based; settings: 500 nM, within 10 min
T1 construct: host or cells: CHO-K1
From the text: (§1) Using confocal microscopy, this assay allows us to visualize, in real time, cell permeation and the ligand-induced translocation of specific PKC isoforms from the cytosol to the membranes of the cell—the hallmark of PKC activation ([29], [68]). […] In alignment with past studies on the activation of PKC in CHO-K1 cells ([22], [65], [69]), we observed strong plasma membrane translocation of PKC-β (Fig. 7C).
(§2) Agar stabs of DH5-alpha (high copy) bacterial cells, containing plasmids for expression of mammalian PKC-δ (Plasmid #: 178856) and PKC-β (Plasmid #: #112265) fused to EGFP under constitutive mammalian promoters CAG and CMV, respectively, were purchased from Addgene.
(§3) Upon receipt, these stabs were incubated at 37 °C in 5% CO2 for 24 hours to allow sufficient bacterial growth. Following incubation, a sterile pipette tip was utilized to streak bacteria onto LB agar plates that are positive for the respective antibiotic that selects for each plasmid. For bacteria containing Plasmid #: 178856, bacteria were streaked onto CellPro™ LB (Lennox) + Ampicillin 100 μg/ml while bacteria containing Plasmid #: 112265 was streaked onto CellPro™ LB (Miller) + Kanamycin 50 μg/ml and incubated for 24 hours at 37 °C in 5% CO2 in order to isolate single colonies of bacteria. Single, isolated bacterial colonies were selected utilizing a sterile pipette tip and placed in polypropylene culture tubes with vented stoppers containing 2mL of LB Broth Miller (Catalog No. BP1426-500) and the respective antibiotic for each plasmid at the recommended concentration of 100 μg/ml for ampicillin and 50 μg/ml for kanamycin. Following inoculation, these liquid cultures were placed on a shaker at 37 °C at 225rpm for 24 hours. The next day, the plasmids were sequestered and purified from the bacteria utilizing the Thermo Scientific™ GeneJET Plasmid Miniprep Kit (Catalog No. K0502).
(§4) PKC-β/PKC-δ plasmid purification
(§5) To sequester and purify plasmid from each culture tube, bacteria was resuspended in culture and transferred to sterile 1.7mL microcentrifuge tubes with 1 mL of bacteria placed into each tube. To harvest the bacteria, microcentrifuge tubes were placed in a microcentrifuge and spun at 8000 rpm for 2 minutes at room temperature. Note that all subsequent centrifugations were performed in a tabletop microcentrifuge at room temperature. Following centrifugation, the supernatant was decanted and 250 μL of Resuspension solution was added to the pelleted cells and vortexed.
(§6) Afterwards, 250 μL of Lysis Solution was added to the resuspended bacterial cells and tubes were inverted 4-6 times and allowed to incubate for no more than 5 minutes to avoid denaturation of the plasmid DNA. After lysing the bacterial cells, 350 μL of Neutralization Solution was immediately added and tubes were inverted 4-6 times. Tubes were then centrifugated for 5 minutes at 14,000 rpm to pellet the cell debris and chromosomal DNA. The supernatant was then carefully aspirated using a pipette, taking care not to distribute the white precipitate of cell and DNA debris and transferred to the GeneJET spin columns, provided in the GeneJET Miniprep Kit. The spin columns were subsequently centrifugated for 1 minute, the flow-through was discarded, and the column was placed back into the same collection tube. 500 μL of Wash Solution, diluted with 96% ethanol, was added to the column, and the column was centrifugated for 1 minute at 14,000 rpm.
(§7) The flow-through was discarded and the column was placed back into the same collection tube.
(§8) This wash process was repeated a second time, after which the spin columns were centrifugated for an additional 1 minute to ensure all residual Wash solution was removed from the plasmids.
(§9) The GeneJET spin columns were then transferred to new 1.7mL microcentrifuge tubes, and 50 μL of Elution Buffer was added to the center of the spin column to allow optimal elution of the plasmid
(§10) DNA. Before centrifugating for 2 minutes, the columns were allowed to incubate for 2 minutes at […]
(§11) room temperature. […]

[3] = molecular target: T2, PKC-δ fused to GFP (Homo sapiens, UniProt Q05655); assay: as above; type: cell-based; settings: 1500 nM, within 10 min
T2 construct: host or cells: CHO-K1
From the text: as §1, §2, §3, §4, §5, §6, §7, §8, §9, §10, §11

T2 sequence (Q05655 whole entry, the tested form may be a part): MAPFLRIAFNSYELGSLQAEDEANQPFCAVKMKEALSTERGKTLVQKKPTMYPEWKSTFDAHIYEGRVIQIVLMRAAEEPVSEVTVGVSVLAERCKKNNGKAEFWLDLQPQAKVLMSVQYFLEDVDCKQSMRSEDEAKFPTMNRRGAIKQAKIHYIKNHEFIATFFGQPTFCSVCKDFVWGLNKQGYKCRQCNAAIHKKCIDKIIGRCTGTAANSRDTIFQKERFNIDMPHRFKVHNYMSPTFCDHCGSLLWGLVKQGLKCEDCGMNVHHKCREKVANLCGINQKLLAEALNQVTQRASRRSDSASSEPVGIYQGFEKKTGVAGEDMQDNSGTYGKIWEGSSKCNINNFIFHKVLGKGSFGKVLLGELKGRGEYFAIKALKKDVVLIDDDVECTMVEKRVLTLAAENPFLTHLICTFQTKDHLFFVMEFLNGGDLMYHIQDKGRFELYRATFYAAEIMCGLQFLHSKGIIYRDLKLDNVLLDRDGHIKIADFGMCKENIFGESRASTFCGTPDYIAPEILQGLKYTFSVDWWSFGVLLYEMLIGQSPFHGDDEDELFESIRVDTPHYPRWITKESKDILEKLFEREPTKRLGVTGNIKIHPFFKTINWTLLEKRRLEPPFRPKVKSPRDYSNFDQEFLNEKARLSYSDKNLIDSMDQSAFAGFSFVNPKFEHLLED
T1 sequence (P05771 whole entry, the tested form may be a part): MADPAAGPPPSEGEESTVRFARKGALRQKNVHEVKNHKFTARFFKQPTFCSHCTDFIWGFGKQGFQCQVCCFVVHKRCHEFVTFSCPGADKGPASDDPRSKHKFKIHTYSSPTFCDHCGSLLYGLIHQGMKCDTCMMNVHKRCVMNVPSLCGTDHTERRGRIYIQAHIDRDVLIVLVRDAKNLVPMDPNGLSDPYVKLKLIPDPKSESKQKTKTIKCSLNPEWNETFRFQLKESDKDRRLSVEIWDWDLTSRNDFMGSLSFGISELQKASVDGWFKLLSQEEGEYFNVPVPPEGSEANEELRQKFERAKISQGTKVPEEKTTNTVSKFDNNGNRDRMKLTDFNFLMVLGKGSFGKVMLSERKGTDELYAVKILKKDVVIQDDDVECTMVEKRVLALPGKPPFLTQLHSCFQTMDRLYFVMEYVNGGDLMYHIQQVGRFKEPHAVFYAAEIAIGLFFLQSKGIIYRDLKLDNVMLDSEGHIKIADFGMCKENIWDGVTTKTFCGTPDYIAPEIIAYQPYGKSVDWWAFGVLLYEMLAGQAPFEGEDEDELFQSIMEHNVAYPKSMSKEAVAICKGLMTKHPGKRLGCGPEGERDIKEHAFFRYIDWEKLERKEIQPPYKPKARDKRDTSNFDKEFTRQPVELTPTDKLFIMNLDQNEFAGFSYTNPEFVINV

Row | Compound | TNF-α (ELISA) ([1]; 50 nM) | TNF-α (ELISA) ([1]; 500 nM) | tumor necrosis factor–α production in words ([1]; 500 and 50 nM) | translocation of PKC-β-GFP in words [2] | translocation of PKC-δ-GFP in words [3]
1 | C/C=C(\C)C(=O)O[C@@H]1[C@@H](C)[C@@]2(O)[C@@H](C=C(CO)C[C@]3(O)C(=O)C(C)=C[C@@H]23)[C@@H]2C(C)(C)[C@]12OC(=O)[C@@H](C)CC [SUW402] | < 3.5 pg/mL | < 3.5 pg/mL | did not produce detectable levels of tumor necrosis factor–α at either concentration |  | 
2 | C/C=C(\C)C(=O)O[C@@H]1[C@@H](C)[C@@]2(O)[C@H]([C@@H]3C(C)(C)[C@]13OC(=O)[C@@H](C)CC)[C@@H]1O[C@]1(CO)[C@@H](O)[C@]1(O)C(=O)C(C)=C[C@H]12 [EBC-46, Tigilanol tiglate] |  |  |  | effectively translocate PKC-β at 500 nM | selectively induced perinuclear translocation of PKC-δ
3 | CC[C@H](C)C(=O)O[C@@]12[C@H](OC(C)(C)C)[C@@H](C)[C@@]3(O)[C@H]([C@@H]1C2(C)C)[C@@H]1O[C@]1(CO)[C@@H](O)[C@]1(O)C(=O)C(C)=C[C@H]13 [SUW430] |  |  |  | effectively translocate PKC-β at 500 nM | selectively induced perinuclear translocation of PKC-δ
4 | C/C=C(\C)C(=O)O[C@@H]1[C@@H](C)[C@@]2(O)[C@H]([C@@H]3C(C)(C)[C@]13OC(=O)Cc1cccc3ccccc13)[C@@H]1O[C@]1(CO)[C@@H](O)[C@]1(O)C(=O)C(C)=C[C@H]12 [SUW431] | 4.4 pg/mL | 8.4 pg/mL |  | effectively translocate PKC-β at 500 nM | strong perinuclear and plasma membrane translocation of PKC-δ
